As usually defined, the IC50 is the concentration needed to halve the response being measured. A higher IC50 goes with lower potency.

In the assay the target is Protein phosphatase 1 catalytic subunit (PPP1CA). In words: Inhibitory concentration against protein phosphatase 1 (PP1) was determined.
`O=C(O)[C@@H](Cc1ccccc1)N1C(=O)[C@@H]2[C@H](C1=O)[C@H]1CC[C@@H]2O1` [(R)-2-((1S,2R,6S,7R)-3,5-Dioxo-10-oxa-4-aza-tricyclo[5.2.1.0*2,6*]dec-4-yl)-3-phenyl-propionic acid] displayed an IC50 above 1 mM.

With `CC(C)C[C@H](C(=O)O)N1C(=O)[C@@H]2[C@H](C1=O)[C@H]1CC[C@@H]2O1` [(R)-2-((1S,2R,6S,7R)-3,5-Dioxo-10-oxa-4-aza-tricyclo[5.2.1.0*2,6*]dec-4-yl)-4-methyl-pentanoic acid], the IC50 is above 1 mM. The molecule `O=C(O)CC[C@H](C(=O)O)N1C(=O)[C@@H]2[C@H](C1=O)[C@H]1CC[C@@H]2O1` [(R)-2-((1S,2R,6S,7R)-3,5-Dioxo-10-oxa-4-aza-tricyclo[5.2.1.0*2,6*]dec-4-yl)-pentanedioic acid] came in with a half-maximal inhibitory concentration (IC50) of 0.095 mM.

In the case of `O=C(O)[C@H](Cc1ccccc1)N1C(=O)[C@@H]2[C@H](C1=O)[C@H]1CC[C@@H]2O1` [(S)-2-((1S,2R,6S,7R)-3,5-Dioxo-10-oxa-4-aza-tricyclo[5.2.1.0*2,6*]dec-4-yl)-3-phenyl-propionic acid], the IC50 was above 1 mM. Molecule `CC(C)C[C@@H](C(=O)O)N1C(=O)[C@@H]2[C@H](C1=O)[C@H]1CC[C@@H]2O1` [(S)-2-((1S,2R,6S,7R)-3,5-Dioxo-10-oxa-4-aza-tricyclo[5.2.1.0*2,6*]dec-4-yl)-4-methyl-pentanoic acid] returned a half-maximal inhibitory concentration (IC50) above 1 mM.

(Values after BindingDB's records for doi:10.1016/s0960-894x(01)00594-7 (The University of Newcastle, 2001).)
